From patent US20220125746A1, “METHOD OF PREVENTING OR TREATING TREATMENT-INDUCED GASTROINTESTINAL INJURY” (priority 2019, published 2022)
Where a name gives a salt, the structure may show the parent alone.

How the values were obtained:
LGR5+ stem cells [1] = experiment: LGR5+ stem cells, niche and DNA damage after CPT-11 in mice; format: in vivo, mouse
Procedure: LGR5(GFP)/TUNEL IF. Sections were prepared as described above. […] Sections were then washed in PBS, and TUNEL staining was performed with the ApopTag Fluorescein In Situ Apoptosis Detection Kit (Chemicon) according to the manufacturer's instructions (37, 46).
CD166 IF. Sections were prepared as described above.
p53 BP1 IF: Sections were prepared as described above. […] Sections were then incubated with AlexaFluor-594 goat anti-rabbit secondary antibodies (1:200; A11012; Invitrogen) for 1 hour at room temperature and counterstained with VectaShield plus DAPI.
(§1) Fresh mucosal scrapings from 10 cm of jejunum were washed in cold PBS, resuspended in 700 ul of RNA lysis buffer, and homogenized in a Dounce homogenizer. RNA was isolated using the Quick-RNA MiniPrep kit (Zymo Research) according to the manufacturer's instructions. Organoids were freed from Matrigel using Cell Recovery Solution (Corning), as described in, before RNA isolation. Complementary DNA was generated from 2 ug of total RNA from mice or ˜100 ng of total RNA from colonic organoids and was pooled from three mice or three wells of organoid culture per treatment group using SuperScript III reverse transcriptase (Invitrogen) and random primers. Gene expression was normalized to Gapdh. Representative results are shown, and similar results were obtained in at least three independent experiments. Details on mouse and human primers are found in Tables 1 and 2.

[2] = test system: colon cancer cell lines HCT 116, p53 KO, HT29, SW480, DLD1, PUMA KO; experiment: CPT-induced apoptosis in colon cancer cell lines (nuclear fragmentation assay); format: cell-based, human; conditions: CPT 500 nM 24 h, PUMAi 25 uM; p53 WT, null, mutant or PUMA null lines
Procedure: (FIG. 10A) Structure of the PUMA inhibitor lead compound (PUMAi). (FIG. 10B) Lysates of 293 cells transfected with individual plasmids for 24 hours were mixed in the indicated combinations. Lysates were incubated with vehicle or PUMA inhibitor (PUMAi, 25 μM) for 15 min before immunoprecipitation with an anti-HA antibody. The HA-bound proteins and input were analyzed by western blotting. (FIG. 10C) Lysates of 293 cells transfected with individual plasmids for 24 h were mixed in the indicated combinations. Lysates were incubated with vehicle or PUMA Inhibitor (PUMAi, 25 μM) for 15 min before immunoprecipitation with an anti-HA antibody. The HA-bound proteins and input were analyzed by western blotting. (FIG. 10D) Indicated colon cancer cell lines were treated with camptothecin (CPT, 500 nM) for 24 h. […] Apoptosis was measured by nuclear fragmentation assay. […] (FIG. 10E) Cells were treated as in D for 24 h and analyzed by western blotting. […]
After treatment, floating and adhering cells were collected and stained in a solution containing 3.7% formaldehyde, 0.5% NP-40, and Hoechst 33258 (10 ug/ml) (Molecular Probes) in PBS. Apoptosis was assessed through microscopic visualization of condensed and fragmented nuclei, as previously described (Yu J. et al., Proc Natl Acad Sci USA (2003) 100:1931-36, incorporated herein by reference). A minimum of 300 cells per treatment were analyzed in triplicate. […]

[3] = test system: primary human colonic organoids; experiment: Human colonic organoids treated with CPT; format: cell-based; conditions: PUMAi 50 uM
Procedure: as §1
Surgically resected intestinal tissues were obtained from Health Science Tissue Bank (HSTB) of UPMC Shadyside Hospital and UPMC Presbyterian Hospital. All samples were obtained with informed consent and approval by the University of Pittsburgh Ethics Committee. Human normal colon crypt isolation and organoid development were performed as previously described with modifications. The complete culture medium for normal human colon organoids contains advanced DMEM/F12 (12634-010, Invitrogen) supplemented with 1× penicillin/streptomycin (15140-122, Invitrogen), 10 mM HEPES (15630-106, Invitrogen), 2 mM GlutaMAX (Invitrogen), 1× B27 (17504-044, Invitrogen), 1XN2 (17502-048, Invitrogen), 1 mM N-Acetylcysteine (A0737, Sigma), 10 nM [leu-15]-Gastrin (G9145, Sigma), 10 mM nicotinamide (N0636, Sigma), 10 μM SB202190 (S7067, Sigma), 50 ng/ml recombinant murine EGF (315-09, Peprotech), 0.5 μM A83-01 (2939, Tocris Bioscience), 10 nM PGE2 (22-961-0, Tocris Bioscience), and 50% WRN-conditioned medium (vol/vol). Freshly isolated crypts were cultured with the same medium plus 10 μM Y-27632 and 100 μg/ml Primocin. Organoids 100 p.m or greater in diameter were enumerated on day 6 after CPT treatment. […]

LGR5+ stem cells [4] = test system: LGR5+ stem cells
Procedure: WT and Puma KO mice carrying the Lgr5-EGFP-IRES-creERT2 marking allele were treated with CPT-11 and PUMAi over 2 weeks as in FIGS. 5A-5G and analyzed for intestinal phenotypes. (FIG. 6A) GFP (LGR5) immunofluorescence in intestinal crypts. Arrows indicate LGR5^+ (GFP) crypts. Scale bar, 100 um. (FIG. 6B) Quantitation of intestinal crypts containing at least one GFP^+ (LGR5^+) cell. (FIG. 6C) Top: Olfm4 RNA ISH in intestinal crypts. Scale bar, 50 um. Asterisks indicate Olfm4+ crypt cells. Bottom: Percentage of crypts containing at least one Olfm4+ cell. (FIG. 6D) MMP7 immunofluorescence in intestinal crypts. Scale bar, 100 um. (FIG. 6E) Quantitation of MMP7+ crypt cells at the crypt base (CBC region). (FIG. 6F) Top: GFP (LGR5) and MMP7 immunofluorescence in intestinal crypts. Scale bar, 20 um. Asterisks indicate LGR5^+/MMP7^+ cell pairs. Bottom: Quantitation of LGR5^+/MMP7^+ cell pairs per crypt. In (FIG. 6A), (FIG. 6D), and (FIG. 6F), DAPI was used to stain nuclei. In (FIG. 6B), (FIG. 6C), (FIG. 6E), and (FIG. 6F), values are means+SEM; n=3 mice. *P<0.05, **P<0.01, and ***P<0.001 (one-way ANOVA with Tukey post hoc test).
LGR5 (GFP) IF. Sections were deparaffinized and rehydrated through graded ethanols. Antigen retrieval was performed by boiling for 10 minutes in 0.1 M citrate buffer (pH 6.0) with 1 mM EDTA. Non-specific antibody binding was blocked using 20% goat serum (Invitrogen) at room temperature for 30 min. […] Sections were then washed in PBS and mounted with VectaShield+DAPI (Vector Labs).
MMP7 IF. Sections were prepared as described above. Non-specific antibody binding was blocked using 20% chicken serum (Invitrogen) at room temperature for 30 min. Sections were washed in PBS and incubated overnight at 4 °C in a humidified chamber with 1:100 diluted goat anti-MMP7 (AF2967; R&D Systems). […] Sections were then washed in PBS and mounted with VectaShield+DAPI (Vector Labs) for visualization.
LGR5(GFP)/1VIMP7 IF. Sections were prepared as described above. Non-specific antibody binding was blocked using 20% chicken serum (Invitrogen) at room temperature for 30 min. Sections were then stained for GFP as described above, followed by staining for MMP7 as described.
ISH for Olfm4 was carried out with the RNAscope 2.0 BROWN kit (Advanced Cell Diagnostics) according to the manufacturer's instructions. Briefly, tissue sections were baked for 60 min at 60 ÅåC, then deparaffinized in xylene, and rehydrated through graded ethanols. Sections then underwent three pretreatment steps, probe hybridization, six amplification steps, development, and counterstaining.

What does the source list for OCCN1CCN(CC(O)COc2ccc3ccccc3c2)CC1 (stereo not drawn) [PUMAi, 1-[4-(2-hydroxyethyl)-1-piperazinyl]-3-(2-naphthyloxy)-2-propanol dihydrochloride]?
crypt DNA damage by 53BP1 foci (LGR5+ stem cells [1]; 6 hours after single CPT-11 dose, vs control group): comparable; crypt DNA damage by 53BP1 foci (LGR5+ stem cells [1]; 48 hours after a single dose, more so 120 hours after three doses of CPT-11): lower; decrease of CPT-11-induced apoptosis of LGR5+ cells (LGR5+ stem cells [1]; LGR5-EGFP reporter mice, CPT-11 200 mg/kg, PUMAi 10 mg/kg 2 h before): > 70%; suppression of TA marker CD44 mRNA (LGR5+ stem cells [1]; after CPT-11, intestinal mucosa): not by PUMAi; activation of WNT and NOTCH responsive genes (qRT-PCR) (LGR5+ stem cells [1]; as early as 6 hours after CPT-11): largely suppressed; CPT-11-induced expansion of CD166+ cells (LGR5+ stem cells [1]; by 96 hours): fully suppressed; camptothecin (CPT)-induced apoptosis in colon cancer cell lines [2]: did not reduce camptothecin (CPT)-induced apoptosis; CPT-induced caspase-3 activation ([3]; 24 h after CPT): inhibited CPT-induced caspase-3 activation; CPT-induced expression of WNT and NOTCH targets ([3]; 24 h after CPT): suppressed CPT-induced expression of WNT and NOTCH targets; organoid growth after CPT ([3]; CPT 500 nM 24 h, day 6): enhanced organoid growth; drop in Olfm4+ crypts (RNA ISH) (LGR5+ stem cells [4]; after six doses of CPT-11): 49%; loss and mislocalization of MMP7+ cells and of MMP7+/LGR5+ contact (LGR5+ stem cells [4]; repeated CPT-11 treatment): suppressed
